Measurements reported in article PMC5908295 (Oncotarget, 2018).
Where two headings read alike, the source gives them in different places.

Assays:
[1] = biological target: FLT3wt (Homo sapiens, UniProt P36888); experiment: KINOMEscan Kd (DiscoverX); assay type: binding
[2] = Pharmacokinetics after oral and intravenous administration; assay type: in vivo, rats (Sprague Dawley); settings: male, plasma, Rat, Dose PO/IV 25/1 mg/kg
Protocol: therapeutic potential in acute myeloid leukemia
sheet for further calculations.
Three male Beagle dogs were administered

[3] = Metabolic stability, liver S9 fraction; assay type: in vitro ADME; settings: Mouse, 37 °C, read-out: Liver S9 fraction t1/2 (converted)
[4] = Metabolic stability, liver S9 fraction; assay type: in vitro ADME; settings: Rat, 37 °C, read-out: Liver S9 fraction t1/2 (converted)
[5] = system: MOLM-16 (FLT3-WT) tumor; experiment: MOLM-16 subcutaneous xenograft, single agent; assay type: in vivo, SCID/beige mice
Text: All animals were handled in strict accordance with good animal practice as defined by the relevant national and local animal welfare bodies. SCID and SCID/beige C.B-17 mice were provided by Harlan Laboratories or Charles River Laboratories, and were maintained in pathogen free conditions. For the xenograft experiments, age-matched (9-11 weeks old) females were used. 5×10^6 of MV-4-11 or MOLM-16 cells were suspended in a mixture (1:1, v:v) of PBS with Matrigel (BD Biosciences,) and injected subcutaneously (sc), in a total volume of 100 μL, above the groin on the right hind limb. For MOLM-13 and KG-1 cells, a mixture (3:1, v:v) of PBS and Matrigel HC (BD Bioscience,) was used to inject 5 × 10^6 of cell per mouse subcutaneously (sc), in a total volume of 100 μL. When tumors reached 100-130 mm^3, mice were randomized into uniform groups (6-9 mice per group) and subsequently administered the compound. […] At the end of the experiment, mice were anesthetized with isofluran and blood samples for total cell counts and biochemistry were obtained by retro-orbital bleeding. […] 5×10^6 cells suspended in a mixture (3:1, v:v) of PBS and Matrigel were injected as described above. When the tumor volume reached ~120 mm^3, mice were randomized into uniform groups (5 mice per group) and the compound then administered. […] Tumor volume was monitored every second day and calculated using the formula: TV = (a^2×b)/2, where “a” is the short axis in millimeters, and “b” is the long axis in millimeters. Body weight was assessed every day.

[6] = Total blood cell counts in mice with MV-4-11 tumors; settings: treatment day 15
Text: All animals were handled in strict accordance with good animal practice as defined by the relevant national and local animal welfare bodies. SCID and SCID/beige C.B-17 mice were provided by Harlan Laboratories or Charles River Laboratories, and were maintained in pathogen free conditions. For the xenograft experiments, age-matched (9-11 weeks old) females were used. 5×10^6 of MV-4-11 or MOLM-16 cells were suspended in a mixture (1:1, v:v) of PBS with Matrigel (BD Biosciences,) and injected subcutaneously (sc), in a total volume of 100 μL, above the groin on the right hind limb. For MOLM-13 and KG-1 cells, a mixture (3:1, v:v) of PBS and Matrigel HC (BD Bioscience,) was used to inject 5 × 10^6 of cell per mouse subcutaneously (sc), in a total volume of 100 μL. When tumors reached 100-130 mm^3, mice were randomized into uniform groups (6-9 mice per group) and subsequently administered the compound. […] At the end of the experiment, mice were anesthetized with isofluran and blood samples for total cell counts and biochemistry were obtained by retro-orbital bleeding. […] 5×10^6 cells suspended in a mixture (3:1, v:v) of PBS and Matrigel were injected as described above. When the tumor volume reached ~120 mm^3, mice were randomized into uniform groups (5 mice per group) and the compound then administered. […] Tumor volume was monitored every second day and calculated using the formula: TV = (a^2×b)/2, where “a” is the short axis in millimeters, and “b” is the long axis in millimeters. Body weight was assessed every day. […]
Supplementary Table 10: Related to Figure 5C. […] The assessment total
performed on treatment day 15.
RBC – red blood cells, HGB – hemoglobin, HCT – hematocrit, WBC – white blood cells, LYMPH – lymphocytes, MONO
– monocytes, GRA – granulocytes, PLT – platelet, MPV – mean platelet volume.

[7] = system: OCI-AML-3; experiment: MTS viability assay, 72 h; settings: Homo sapiens, OCI-AML-3, 72 h
Protocol: 15-25 ×10^3 of MV-4-11, MOLM-13, MOLM-14, MOLM-16, KG-1, Eol-1, SKM-1, PL-21, GDM-1, SKNO-1, RS4;11, Kasumi-3 and Kasumi-6 cells were seeded in 150 μL of culture medium onto individual wells in a 96 well plates, in triplicates. On the same day, 50 μL of medium containing tested inhibitor was added to the wells. Each compound was tested at 8 concentrations, in triplicates. As a negative control, the medium containing 0.1% DMSO was used. […] Staurosporine was used at 10 μM as a positive control. One the day of drug addition, basal signal from untreated cells was measured from in triplicate to determine time zero (T0). […] GI50 and LC50 values were extrapolated from a variable (four-parameter) dose-response curve fitted in GraphPad Prism.

FLT3wt, sequence (P36888 27-993): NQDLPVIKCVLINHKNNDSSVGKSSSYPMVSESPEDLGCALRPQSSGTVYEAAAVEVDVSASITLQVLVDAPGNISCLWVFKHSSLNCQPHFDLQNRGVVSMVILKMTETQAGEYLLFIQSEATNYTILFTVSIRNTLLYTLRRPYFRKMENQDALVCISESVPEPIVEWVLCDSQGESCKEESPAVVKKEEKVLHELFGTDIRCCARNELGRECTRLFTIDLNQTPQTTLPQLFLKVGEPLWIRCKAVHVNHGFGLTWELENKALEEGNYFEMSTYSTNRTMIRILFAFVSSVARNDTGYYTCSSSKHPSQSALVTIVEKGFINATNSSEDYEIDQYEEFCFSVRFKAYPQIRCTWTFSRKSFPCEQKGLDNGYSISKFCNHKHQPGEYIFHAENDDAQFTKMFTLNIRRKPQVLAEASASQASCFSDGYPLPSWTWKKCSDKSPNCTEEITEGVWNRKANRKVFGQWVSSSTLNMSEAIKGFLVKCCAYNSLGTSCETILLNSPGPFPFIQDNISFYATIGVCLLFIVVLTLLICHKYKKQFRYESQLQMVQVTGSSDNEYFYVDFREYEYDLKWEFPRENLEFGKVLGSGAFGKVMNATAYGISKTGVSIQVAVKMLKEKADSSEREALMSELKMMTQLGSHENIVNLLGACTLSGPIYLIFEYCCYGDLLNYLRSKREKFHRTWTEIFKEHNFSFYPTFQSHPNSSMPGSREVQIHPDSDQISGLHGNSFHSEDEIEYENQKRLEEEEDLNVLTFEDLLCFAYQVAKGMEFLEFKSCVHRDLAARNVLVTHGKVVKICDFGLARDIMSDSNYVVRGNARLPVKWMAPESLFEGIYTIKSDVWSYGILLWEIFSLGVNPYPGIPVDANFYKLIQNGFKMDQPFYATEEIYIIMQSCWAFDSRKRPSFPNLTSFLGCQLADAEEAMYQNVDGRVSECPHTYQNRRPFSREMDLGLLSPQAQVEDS

Molecule `CC(C)n1c(C2CCNCC2)nc2c([N+](=O)[O-])c(Br)c(Br)cc21` [SEL24-B489, 5,6-dibromo-4-nitro-2-(piperidin-4-yl)-1-(propan-2-yl)-1H-1,3-benzodiazole] has a Kd [1] of 160 nM, a Cmax ([2]; Sprague Dawley, 25 mg/kg) of 913 ng/mL and a Tmax ([2]; Sprague Dawley, 25 mg/kg) of 6.7 h. It also gave an AUC(0-t) ([2]; Sprague Dawley) of 19600 ng·h/mL, a half-life ([2]; Sprague Dawley) of 600 min and a bioavailability ([2]; Sprague-Dawley, 25 mg/kg, read-out: F (bioavailability)) of 52%. The half-life at 1 µM [3] was 156 min, the half-life at 1 µM [4] was 258 min and the TGI ([5]; MOLM-16, 25 mg/kg BID) was ~ 100%. The TGI ([5]; MOLM-16, 50 mg/kg EOD) was 79%, the TGI ([5]; MOLM-16, 50 mg/kg QD) was ~ 100% and the GRA ([6]; SEL24-B489 25 mg/kg) was 42.2%. For the same molecule, the HCT ([6]; SEL24-B489 25 mg/kg) was 48.8%, the HGB ([6]; SEL24-B489 25 mg/kg) was 14.6 g/dL and the LYMPH ([6]; SEL24-B489 25 mg/kg) was 47.2%. For the same molecule, the MONO ([6]; SEL24-B489 25 mg/kg) was 10.6%, the MPV ([6]; SEL24-B489 25 mg/kg) was 6.1 μm3 and the PLT ([6]; SEL24-B489 25 mg/kg) was 1016 103/mm3. For the same molecule, the RBC ([6]; SEL24-B489 25 mg/kg) was 9.8 106/mm3, the WBC ([6]; SEL24-B489 25 mg/kg) was 3.1 103/mm3 and the GRA ([6]; SEL24-B489 50 mg/kg) was 49.1%. The HCT ([6]; SEL24-B489 50 mg/kg) was 47.4%, the HGB ([6]; SEL24-B489 50 mg/kg) was 14.4 g/dL and the LYMPH ([6]; SEL24-B489 50 mg/kg) was 40.3%. The MONO ([6]; SEL24-B489 50 mg/kg) was 10.5%, the MPV ([6]; SEL24-B489 50 mg/kg) was 5.7 μm3 and the PLT ([6]; SEL24-B489 50 mg/kg) was 1286 103/mm3. For the same molecule, the RBC ([6]; SEL24-B489 50 mg/kg) was 9.6 106/mm3, the WBC ([6]; SEL24-B489 50 mg/kg) was 4.9 103/mm3 and the GI50 [7] was 1590 nM. The CC50 ([7]; read-out: LC50) was 9.21 µM.
